From patent US20130053430A1, “MODULATION OF CETP EXPRESSION” (Isis Pharmaceuticals, Inc., priority 2010, published 2013) come the findings set out here.

Strand notation (5' to 3'): a small letter for the sugar, then the base; units joined by * are phosphorothioate-linked, units joined directly phosphodiester-linked; [ ] holds rarer units or linkages, { } end groups; capitals alone tell only the bases. e = 2'-O-(2-methoxyethyl) (MOE); [5mC] = 5-methylcytosine; d = 2'-deoxy (DNA)

The subject of data set [1] is human CETP mRNA. The experiment in a line: Antisense inhibition of human CETP mRNA in SW872 liposarcoma cells (Example 1). The conditions noted are these: 150 nM antisense oligonucleotide, lipofectin, ~24 hours, relative to untreated control cells. It is filed as cell-based. The protocol:
Antisense oligonucleotides targeted to a CETP nucleic acid were tested for their effect on CETP mRNA transcript in vitro. Cultured SW872 liposarcoma cells at a density of 50,000 cells per well in a 24-well plate were transfected using lipofectin reagent with 150 nM antisense oligonucleotide. After approximately 24 hours, RNA was isolated from the cells and CETP mRNA levels were measured by quantitative real-time PCR. A human primer probe set (forward sequence […], designated herein as SEQ ID NO: 38; reverse sequence GGCTCACGCCTTTGCTGTT, designated herein as SEQ ID NO: 39; probe sequence […], designated herein as SEQ ID NO: 40) was used to quantitate CETP mRNA. CETP mRNA transcript levels were adjusted according to total RNA content, as measured by the house-keeping gene, GAPDH mRNA levels. GAPDH was measured using a primer probe set with the sequence as set forth in SEQ ID NOs: 10, 11, 13. Results are presented as percent inhibition of CETP, relative to untreated control cells.
The antisense oligonucleotides in Table 3 are 5-10-5 gapmers, where the gap segment comprises ten 2′-deoxynucleosides and each wing segment comprises five 2′-MOE nucleosides. Each nucleotide in the 5′ wing segment and each nucleotide in the 3′ wing segment has a 2′-MOE modification. The internucleoside linkages throughout each gapmer are phosphorothioate (P═S) linkages. All cytosine residues throughout each gapmer are 5-methylcytosines. ‘Target start site’ indicates the 5′-most nucleotide to which the antisense oligonucleotide is targeted. ‘Target stop site’ indicates the 3′-most nucleotide to which the antisense oligonucleotide is targeted. All the antisense oligonucleotides listed in Table 3 target human CETP mRNA, designated herein as SEQ ID NO: 1 (GENBANK Accession No. M30185.1).

The test system of data set [2] is human CETP mRNA. The data set can be described thus: Antisense inhibition of human CETP mRNA in primary hepatocytes from huCETP transgenic mice (Example 4). Conditions: cytofectin, ~24 hours. It is filed as cell-based, mouse. The protocol:
Transgenic mice expressing human CETP, controlled by its natural flanking region, increase expression of this gene in response to hypercholesterolemia (Jiang, X. C. et al., J. Clin. Invest. 1992. 90: 1290-1295). These mice were utilized for the following studies. Antisense oligonucleotides targeted to a CETP nucleic acid and described in Example 1 were tested for their effect on CETP mRNA transcript in vitro. Cultured primary hepatocytes from huCETP transgenic mice, at a density of 17,500 cells per well in a 96-well plate, were transfected using cytofectin reagent with 100 nM or 200 nM antisense oligonucleotide. After approximately 24 hours, RNA was isolated from the cells and CETP mRNA levels were measured by quantitative real-time PCR. CETP mRNA transcript levels were adjusted according to total RNA content, as measured by the house-keeping gene, GAPDH mRNA levels. Results are presented in Table 6 as percent inhibition of CETP, relative to untreated control cells.

What is called % inhibition is the share of the control response that was lost under treatment. Read a high % inhibition as a strong effect. On to “ISIS 349507: 5-10-5 MOE gapmer TGATGATGTCGAAGAGGCTC (eT*eG*eA*eT*eG*dA*dT*dG*dT*d[5mC]*dG*dA*dA*dG*dA*eG*eG*e[5mC]*eT*e[5mC])”, for which the “% inhibition” value in data set [1] was determined as 19%. Also, the “Percent inhibition of human CETP mRNA” value in data set [2] (100 nM) is recorded as 71%; in data set [2] (200 nM), 73%.
The corresponding values for “ISIS 349447: 5-10-5 MOE gapmer TATGTATGTCCGCCCAGCCC (eT*eA*eT*eG*eT*dA*dT*dG*dT*d[5mC]*d[5mC]*dG*d[5mC]*d[5mC]*d[5mC]*eA*eG*e[5mC]*e[5mC]*e[5mC])” are 15%, 57% and 28%.
In the same order, the values of “ISIS 349467: 5-10-5 MOE gapmer GTGGTGTAGCCATACTTCAG (eG*eT*eG*eG*eT*dG*dT*dA*dG*d[5mC]*d[5mC]*dA*dT*dA*d[5mC]*eT*eT*e[5mC]*eA*eG)” are 35%, 57% and 51%.
The corresponding values for “ISIS 349497: 5-10-5 MOE gapmer CCTCTTCAAATGTGTAAGCT (e[5mC]*e[5mC]*eT*e[5mC]*eT*dT*d[5mC]*dA*dA*dA*dT*dG*dT*dG*dT*eA*eA*eG*e[5mC]*eT)” are 78%, 71% and 79%.
“ISIS 349486: 5-10-5 MOE gapmer GAAAGCTACCTTGGCCAGCG (eG*eA*eA*eA*eG*d[5mC]*dT*dA*d[5mC]*d[5mC]*dT*dT*dG*dG*d[5mC]*e[5mC]*eA*eG*e[5mC]*eG)”: the “% inhibition” value in data set [1] came to 55%. The results for the “Percent inhibition of human CETP mRNA” value in data set [2] (100 nM) and in data set [2] (200 nM) were 72% and 53%, respectively.
Consider “ISIS 349495: 5-10-5 MOE gapmer AGGAATTTCACCATCACTGA (eA*eG*eG*eA*eA*dT*dT*dT*d[5mC]*dA*d[5mC]*d[5mC]*dA*dT*d[5mC]*eA*e[5mC]*eT*eG*eA)”, for which, in data set [1], the “% inhibition” value was 58%. In addition, the “Percent inhibition of human CETP mRNA” value in data set [2] (100 nM) is given as 61%; in data set [2] (200 nM), 74%.
In the same order, the values of “ISIS 349474: 5-10-5 MOE gapmer CGCTCCCCTTGGAGATGCAG (e[5mC]*eG*e[5mC]*eT*e[5mC]*d[5mC]*d[5mC]*d[5mC]*dT*dT*dG*dG*dA*dG*dA*eT*eG*e[5mC]*eA*eG)” are 76%, 64% and 48%.
The corresponding values for “ISIS 349470: 5-10-5 MOE gapmer GAGGTCAATGGCAGAGTCGA (antisense eG*eA*eG*eG*eT*d[5mC]*dA*dA*dT*dG*dG*d[5mC]*dA*dG*dA*eG*eT*e[5mC]*eG*eA)” are 59%, 64% and 49%.
In the same order, the values of “ISIS 349475: 5-10-5 MOE gapmer GCTTGATCCACCCAGGCTCT (eG*e[5mC]*eT*eT*eG*dA*dT*d[5mC]*d[5mC]*dA*d[5mC]*d[5mC]*d[5mC]*dA*dG*eG*e[5mC]*eT*e[5mC]*eT)” are 5%, 0% and 0%.
Regarding “ISIS 349514: 5-10-5 MOE gapmer ACGCTGGAGGAGACACCAGG (eA*e[5mC]*eG*e[5mC]*eT*dG*dG*dA*dG*dG*dA*dG*dA*d[5mC]*dA*e[5mC]*e[5mC]*eA*eG*eG)”, in data set [1], the “% inhibition” value is listed as 71%. For the same substance, the “Percent inhibition of human CETP mRNA” value is 84% in data set [2] (100 nM) and 92% in data set [2] (200 nM).
With “ISIS 349462: 5-10-5 MOE gapmer ATCTGGATGTTGTGCAACCC (eA*eT*e[5mC]*eT*eG*dG*dA*dT*dG*dT*dT*dG*dT*dG*d[5mC]*eA*eA*e[5mC]*e[5mC]*e[5mC])”, in data set [1], the “% inhibition” value came out at 76%. The “Percent inhibition of human CETP mRNA” value is given as 60% in data set [2] (100 nM) and 76% in data set [2] (200 nM).
As to “ISIS 349458: 5-10-5 MOE gapmer GGTAGCTGGCTCGCTGGAAG (eG*eG*eT*eA*eG*d[5mC]*dT*dG*dG*d[5mC]*dT*d[5mC]*dG*d[5mC]*dT*eG*eG*eA*eA*eG)”, the “% inhibition” value in data set [1] came to 18%. Also, the “Percent inhibition of human CETP mRNA” value is recorded as 65% in data set [2] (100 nM) and 32% in data set [2] (200 nM).
